Laboratory results from paper PMC7769561, “Antileishmanial activity of synthetic analogs of the naturally occurring quinolone alkaloid N-methyl-8-methoxyflindersin” (PLoS ONE, 2020).
Where “and” joins values, the source holds several entries; their conditions need not be identical. Equal entries are not always repeated.

Tests used:
[1] = tested on: L. (V.) panamensis intracellular amastigotes; experiment: Antileishmanial activity in L. (V.) panamensis intracellular amastigotes in hMDMs; type: cell-based, Leishmania (Viannia) panamensis
Description: Next, 100 μL of the suspension was cultured in 96-well plates and infected with L. (V.) panamensis promastigotes (HMOM/COL/87/UA-140) at a 10:1 parasite:cell ratio. We incubated the plates in a 5% CO2 atmosphere for 4 h at 35°C. After incubation, we removed noninternalized parasites by washing the cells with 0.9% NaCl saline solution (Baxter International, Deerfield, IL, USA). The cells were incubated again for 24 h and then treated with each quinoline alkaloid–like compound at a concentration of 100, 10, 1, 0.1, and 0.01 μg/mL in a 5% CO2 atmosphere for 72 h at 36°C. Next, we quantified the percentage of infected cells using fluorescence microscopy, as previously described by Pérez-Cordero in 2011 [23], and quantified the parasite load (amount of intracellular promastigotes and amastigotes per cell) using Giemsa staining and flow cytometry (Cytomics FC 500 MPL; Beckman Coulter, Brea, CA, USA). […] Results were expressed as EC50 using Prism GraphPad software’s probit nonlinear regression analysis (https://www.graphpad.com/scientific-software/prism/).
We used GraphPad Prism nonlinear regression analysis to estimate the percentage mortality with regard to CC50 and EC50. […] The antileishmanial activity with regard to promastigotes was classified as active according to Eq 2: Active=EC50<[LC50/2], (2) where LC50 is the median lethal concentration. We also used GraphPad Prism nonlinear regression analysis to determine the intracellular antileishmanial activity (concentration vs. response), depending on the infection (number of infected cells) and parasite burden (number of parasites/cell) obtained in experimental conditions. Parasite inhibition was estimated using Eq 3, where the plate MFI is 100% parasites: Infectioninhibition(%)=100−[(MIFexposedparasites/MIFunexposedparasites×100)] (3)
The percentage inhibition was used to calculate EC50 by nonlinear regression analysis (fluorescence microscopy), while the parasite burden was evaluated as the percentage of intracellular promastigotes and amastigotes in 100 infected cells (Giemsa staining). […] The selectivity index (SI) was estimated using the following formula: SI=CC50/EC50

[2] = tested on: L. (V.) panamensis-infected hMDMs; experiment: ROS generation in L. (V.) panamensis-infected hMDMs (H2DCFDA flow cytometry); type: cell-based, human
Description: (§1) Next, we detached the cells with ethylenediaminetetraacetic acid (EDTA)/trypsin (Lonza, MD, USA) and 2',7'-dichlorodihydrofluorescein diacetate (H2DCFDA) tagged on a 5 μM fluorescent tube (Sigma-Aldrich) in order to identify intracellular ROS and/or 4-amino-5-methylamino-2′,7′-difluorofluorescein (DAF-FM; Sigma-Aldrich) for NO production in a 5% CO2 atmosphere for 45 min at 37°C. ROS and NO were quantified using flow cytometry (FACS Canto II) at a wavelength of 480 nm. Untreated cells were used as negative controls, while cells treated with 0.0001% H2O2 and 1 μM phorbol myristate acetate were used as ROS production (positive) controls. LPS (10 ng/mL) and phytohemagglutinin (PHA-M) (10 μL/mL) (Invitrogen) were used as positive controls for NO production.

[3] = tested on: L. (V.) panamensis-infected hMDMs; experiment: NO production in L. (V.) panamensis-infected hMDMs (DAF-FM flow cytometry); type: cell-based, human; settings: compound at EC50, 24, 48 and 72 h
Description: as §1

[4] = amastigotes in hMDMs, 72 h, ± SD

1,2,3,4-tetrahydro(benzo)-3-quinolin-ol [Compound 2]
SI (selectivity index = CC50/EC50) ([1]; CC50 hMDMs / EC50 intracellular amastigotes): 3.64 and > 3 | EC50 [1, 4]: 26 µM | EC50 Intracellular amastigotes [1, 4]: 5.2 ± 0.9 µg/mL | Antileishmanial activity class ([1]; intracellular amastigotes, class by EC50): high (high if EC50 < 25 μg/mL) | ROS generation ([2]; compound at EC50, 48 h posttreatment): decrease in ROS generation | ROS generation ([2]; compound at EC50, first 4 h): increase in ROS generation | NO production compared to untreated infected hMDMs [3]: do not modulate the induction of NO production
